Source: patent US20030134901A1, “Lipoxin compounds and their use in treating cell proliferative disorders” (priority 1993, published 2003)

System: PLD activity in differentiated HL-60 cells
Experiment: PLD activity (PEt formation) in differentiated HL-60 cells
Assay type: cell-based, human
Conditions: differentiated HL-60 cells, biphasic response
Description: Cell cultures and differentiation. HL-60 cells were seeded in RPMI medium supplemented with 100 U/ml penicillin, 100 μg/ml streptomycin, and 10% fetal calf serum (Hyclone, Logan, Utah), incubated at 37° C. with 5% CO2 atmosphere in 250 ml flasks. Individual flasks containing ˜[…] next received dimethyl sulfoxide (DMSO) (1.12% v/v, 120 h) or retinoic acid (RA) (1 μM, 120 h) or phorbol myristate acetate (PMA) (20 nM, 48 h). Before performing binding assays, cells were washed twice in phosphate buffered saline (PBS), Ca^2+- and Mg^2+-free, enumerated and suspended at 20×10^6 cells/ml in Tris buffer (10 mM), pH 7.4 (Fiore, S. et al.(1992) J. Biol. Chem. 267:16168). Nitro blue tetrazolium reduction was performed to monitor induction of polymorphonuclear phenotype as in (Imaizumi, M. and Breitman, T. R. (1986) Blood 67:1273), and cell adherence was determined for induction of macrophage-like phenotype (Collins, S. J. (1987) Blood 70:1273). Human umbilical vein endothelial cells (HUVEC) maintained in culture third passage were obtained from Dr. M. Gimbrone (Brigham and Women's Hospital Department of Pathology).
PLD activity. Human PMN and HL-60 cells (50×10^6 cells/ml) prepared as above were incubated with ^3H-myristic acid or ^3H-palmitic acid (8 μCi/50×10^6 cells) for 40-60 min at 37° C. in PBS. Cell uptake ranged between 60-80% of added label, 7.1±4.2% (n=10; mean ±S.D.) and 32.6±10.3% (n=6; mean ±S.D.) into total phospholipid classes of PMN and HL-60 cells, respectively. Incubations were carried out at 37° C. (10 ×10^6 cells/ml PBS). […] At indicated times, incubations were stopped by adding 3.5 ml of ice cold CHCl3/MeOH (2/5, v/v) containing 1-^14C-arachidonic acid (5,000 cpm) used here as internal standard to quantitate extraction recoveries. […] Regions corresponding to PA, PEt, and internal standards were scraped and quantified by liquid scintillation counting. […] All values reported for PEt formation in Tables 4 and 5 were calculated by subtracting the dpm obtained in the presence of […]. […]

CCCCC[C@H](O)/C=C/C=C\C=C\C=C\[C@@H](O)[C@@H](O)CCCC(=O)O [LXA4, (5S, 6R, 15S)-trihydroxy-7E, 9E, 11Z, 13E-eicosatetraenoic acid]
concentration of apparent maximum, PEt formation: 10^−9 M
